Source: patent publication US4053604A (priority 1975, dated 1977)
“And” between values parts separate entries of the source, which are not always exact repeats. Equal values may be shown once. “Also recorded” adds a separate entry of the source.

What was measured:
[1] = tail-flick test, analgesic activity of the agent alone; type: in vivo, albino mice
Source text: In the following experiments, phenoperidine and Compound I are used in the form of their hydrochloride salt and droperidol in the form of its free base in the presence of lactic acid for adjustment to pH to 3.4. Results are expressed on the basis of the form of the drug employed (i.e., free base or hydrochloride salt).
Results of such tests using albino mice are illustrated by tables 1,2 and 3 in which the neuroleptic agent, droperidol, is included for comparative purposes.
*The dose which increased analgesia by 50% when tested 15 minutes after […]

[2] = induction time of rats exposed to halothane anesthesia (loss of righting reflex); type: in vivo, male albino rats (Sprague-Dawley)
Description: The effects of Compound I on halothane-induced anesthesia were assessed using 20 rats for each dose or time interval determination. The experiments were performed on male albino rats (Sprague-Dawley) weighing from 180-220 g. A schematic representation of the apparatus used is illustrated in FIG. 1. The apparatus consists of a rectangular box made of transparent plastic (115 cm long × 28 cm high × 28 cm wide) which is divided into 4 equal chambers by perforated walls. The box rotates around a hollow axis through which gases can be delivered at several proportions from cylinders, through their respective flowmeters. An in-line halothane vaporizer is placed just before the gases reach the chambers. There is an air-tight door to every chamber through which two animals, one treated and one control, are introduced. The gases are delivered at one end of the box and suction is applied to the other end to take up the gases after flowing through the chambers. An in-line water manometer monitors the resulting pressure. This pressure is kept at 0-5 mm H2 O to make certain the gases in the anesthetic chambers remain at atmospheric pressure. The mixture of gases is delivered at a rate of 15 l/min. The inhalation anesthetic gases are delivered for ten minutes prior to the introduction of the animals into the chambers to assure an even distribution in the four chambers. The chambers rotate at four rev/min forcing the animals to tumble and allowing the experimenter to accurately time the loss and recovery of the righting reflex. Induction times are recorded as the time interval elapsed between the beginning of exposure of the animals to the gases and the moment in which they lose their righting reflex.
Groups of control animals (four at a time) were subjected to halothane concentrations ranging from 0.5 to 2.5% in a mixture of 95% O2 -5% CO2, and the induction times thus obtained were used to calculate concentration-reponse curves. Since a certain time elapsed between putting the first and the last rat into their respective chambers, each animal was timed separately with a stopwatch. […] This intermediate concentration of halothane was then used to study the effects of increasing doses of the test compound on the induction times and anesthesia times.
The animals were pretreated by administering the test compounds in dosages ranging from 10 to 500 μg/kg, i.v., at 5, 30, 60, 120, 240 and 360 minutes prior to their exposure to halothane. As soon as all animals lost their righting reflex, the O2 -halothane flow was discontinued and replaced by an equal flow of air. The animals were allowed to remain in the rotating chambers until they regained their righting reflex. Anesthesia times were determined as the interval between the time required to lose and the time to regain the righting reflex. Air flushing of the anesthetic chambers was performed after each determination and the entire procedure repeated with another group of animals for the determination of the effect of a new dose or concentration.
Drugs used in this study include: droperidol, phenoperidine hydrochloride, halothane and Compound I in the form of its hydrochloride salt. Phenoperidine hydrochloride and Compound I (hydrochloride) were dissolved separately in a warm solution of 0.9% sodium chloride. Droperidol was suspended in saline with the aid of a drop ot Tween 80 (Tween 80 is a registered trademark for a complex mixture of polyoxyethylene ethers of mixed partial oleic esters of sorbitol anhydride). Dosages are expressed in this study as the salt form of the compound where applicable. When the experimental protocol called for the concomitant administration of two drugs, these were mixed in the syringe and administered intravenously. The drugs were injected in a volume of 0.1 ml/100 g body weight.
The statistical analysis of the data was performed using Student's […]. […]

[3] = respiratory minute volume and mean arterial blood pressure in rats; type: in vivo
Description: These effects are less than those encountered with neuroleptics presently available for NLA as evidenced by laboratory experiments in rats in which these cardiovascular parameters are measured before and after the administration of Compound 1 and the neuroleptic agent droperidol, see Table 8.
The Effect of Compound 1 and Droperidol on Respiratory Minute Volume
and Mean Arterial Blood Pressure

[4] = behavioral changes and side effects in cebus monkeys; type: in vivo; settings: for Behavioral Changes / Side Effects / Duration / Onset / time of onset of side effect (Extrapyramidal): individual monkey
[5] = respiratory minute volume and mean arterial blood pressure in rats; type: in vivo; settings: with phenoperidine, intravenously, doses substantially greater than required for NLA; in words

## CC(C)[C@@]1(O)CCN2C[C@@H]3c4ccccc4CCc4cccc(c43)[C@H]2C1 [Compound 1, (+)(4a,13b-trans)-(3-hydroxy,13b-trans)-3-isopropyl-2,- 3,4,4a,8,9,13b,14-octahydro-lH-benzo[6,7]cyclohepta[1,2,3-de]pyrido[2,1-a]isoquinolin-3-ol]
[1]; Mus musculus, ip, 0.25 h, i.p., dose which increased analgesia by 50% when tested 15 minutes after drug administration
  ED50: > 35 mg/kg
[1]; in words, listed as Compound I
  analgesic activity when given alone: only a negligible amount of analgesic activity; also recorded: no analgesic activity could be demonstrated
[2]; 10 μg/kg i.v., 5 min before 0.75% halothane
  Induction time, treated: 6.66 min
[2]; 10 μg/kg i.v., 5 min before 1.0% halothane
  Induction time, treated: 2.67 min
[2]; 10 μg/kg i.v., 5 min before 1.5% halothane
  Induction time, treated: 1.32 min
[2]; 10 μg/kg i.v., 5 min before 2.0% halothane
  Induction time, treated: 0.72 min
[2]; 10 μg/kg i.v., 5 min before 2.5% halothane
  Induction time, treated: 0.57 min
[2]; 25 μg/kg i.v., 5 min before 0.75% halothane
  Induction time, treated: 6.30 min
[2]; 25 μg/kg i.v., 5 min before 1.0% halothane
  Induction time, treated: 1.86 min
[2]; 25 μg/kg i.v., 5 min before 1.5% halothane
  Induction time, treated: 1.02 min
[2]; 25 μg/kg i.v., 5 min before 2.0% halothane
  Induction time, treated: 0.71 min
[2]; 25 μg/kg i.v., 5 min before 2.5% halothane
  Induction time, treated: 0.58 min
[2]; 50 μg/kg i.v., 5 min before 0.75% halothane
  Induction time, treated: 5.77 min
[2]; 50 μg/kg i.v., 5 min before 1.0% halothane
  Induction time, treated: 1.62 min
[2]; 50 μg/kg i.v., 5 min before 1.5% halothane
  Induction time, treated: 1.03 min
[2]; 50 μg/kg i.v., 5 min before 2.0% halothane
  Induction time, treated: 0.75 min
[2]; 50 μg/kg i.v., 5 min before 2.5% halothane
  Induction time, treated: 0.57 min
[2]; 100 μg/kg i.v., 5 min before 0.75% halothane
  Induction time, treated: 4.05 min
[2]; 100 μg/kg i.v., 5 min before 1.0% halothane
  Induction time, treated: 1.37 min
[2]; 100 μg/kg i.v., 5 min before 1.5% halothane
  Induction time, treated: 1.13 min
[2]; 100 μg/kg i.v., 5 min before 2.0% halothane
  Induction time, treated: 0.69 min
[2]; 100 μg/kg i.v., 5 min before 2.5% halothane
  Induction time, treated: 0.54 min
[2]; 200 μg/kg i.v., 5 min before 0.75% halothane
  Induction time, treated: 3.48 min
[2]; 200 μg/kg i.v., 5 min before 1.0% halothane
  Induction time, treated: 1.31 min
[2]; 200 μg/kg i.v., 5 min before 1.5% halothane
  Induction time, treated: 1.03 min
[2]; 200 μg/kg i.v., 5 min before 2.0% halothane
  Induction time, treated: 0.64 min
[2]; 200 μg/kg i.v., 5 min before 2.5% halothane
  Induction time, treated: 0.57 min
[2]; 200 μg/kg, i.v., 1% halothane
  reduction of induction time: approximately 50%
[2]; 250 μg/kg i.v., 5 min before 0.75% halothane
  Induction time, treated: 3.72 min
[2]; 250 μg/kg i.v., 5 min before 1.0% halothane
  Induction time, treated: 1.67 min
[2]; 250 μg/kg i.v., 5 min before 1.5% halothane
  Induction time, treated: 0.91 min
[2]; 250 μg/kg i.v., 5 min before 2.0% halothane
  Induction time, treated: 0.67 min
[2]; 250 μg/kg i.v., 5 min before 2.5% halothane
  Induction time, treated: 0.60 min
[2]; Compound 1 (hydrochloride) alone, i.v., 5 min before 1% halothane (FIG. 2)
  maximum decrease in induction time: 45%
[2]; administered prior to anesthetic treatment, in words, listed as Compound I
  effect on induction time for the anesthetic: decreased considerably; also recorded: substantially reduced
[2]; plus 25 μg/kg, i.v., phenoperidine hydrochloride, 1% halothane (FIG. 2)
  decrease in induction time, with phenoperidine: about 65%
[3]; 25 μg/kg
  Change in Mean B.P. as % of Control: -0.83 ± 0.83 % of Control
  Change in Minute Volume as % of Control: +4.2 ± 1.4 % of Control
[3]; 100 μg/kg
  Change in Mean B.P. as % of Control: -4.1 ± 2.6 % of Control
  Change in Minute Volume as % of Control: +6.8 ± 1.9 % of Control
[3]; 250 μg/kg
  Change in Mean B.P. as % of Control: -8.9 ± 1.6 % of Control
  Change in Minute Volume as % of Control: +6.6 ± 2.7 % of Control
[3]; in words
  effect on respiratory minute volume: only a very small increase in minute volume
[3]; upper level of therapeutically effective neuroleptic dosages, in words
  effect on mean arterial blood pressure: minor diminution of blood pressure
[4]; Compound 1, 5 μg/kg i.v.
  Behavioral Changes: None
  Side Effects: None
[4]; Compound 1, 10 μg/kg i.v.
  Behavioral Changes: Passive; also recorded: Huddle
  Duration: 3 h and > 4 h and 2 h
  Onset: 30 min and 20 min and 15 min and 60 min
  Side Effects: None
[4]; Compound 1, 20 μg/kg i.v.
  Behavioral Changes: Passive-Huddle
  Duration: 4 h and > 5 h and 3 h
  Onset: 20 min and 15 min
  Side Effects: None
[4]; Compound 1, 50 μg/kg i.v.
  Behavioral Changes: Huddle
  Duration: > 4 h
  Onset: 20 min and 10 min
  Side Effects: Extrapyramidal and None
  time of onset of side effect (Extrapyramidal): 30 min and 40 min
[4]; Compound 1, 100 μg/kg i.v.
  Behavioral Changes: Huddle
  Duration: > 24 h
  Onset: 10 min and 5 min
  Side Effects: Extrapyramidal
  time of onset of side effect (Extrapyramidal): 15 min and 10 min
[4]; i.v.
  doses at which signs of excitomotor agitation (extrapyramidal excitation) were observed: 0.05 to 0.1 mg/kg
[4]; in words
  eliciting behavioral changes: effective in eliciting behavioral changes at very small doses
[5]
  effect on respiratory depression caused by analgesic agents: only slightly changed
